{"source": "ChEMBL document CHEMBL3865850", "about": "“Discovery of Potent and Selective Leads against Toxoplasma gondii Dihydrofolate Reductase via Structure-Based Design” (ACS Med Chem Lett, 2016)", "key": {"[1]": {"molecular_target": "T1, Bifunctional dihydrofolate reductase-thymidylate synthase (Toxoplasma gondii, UniProt Q07422)", "T1 sequence (Q07422 whole entry)": "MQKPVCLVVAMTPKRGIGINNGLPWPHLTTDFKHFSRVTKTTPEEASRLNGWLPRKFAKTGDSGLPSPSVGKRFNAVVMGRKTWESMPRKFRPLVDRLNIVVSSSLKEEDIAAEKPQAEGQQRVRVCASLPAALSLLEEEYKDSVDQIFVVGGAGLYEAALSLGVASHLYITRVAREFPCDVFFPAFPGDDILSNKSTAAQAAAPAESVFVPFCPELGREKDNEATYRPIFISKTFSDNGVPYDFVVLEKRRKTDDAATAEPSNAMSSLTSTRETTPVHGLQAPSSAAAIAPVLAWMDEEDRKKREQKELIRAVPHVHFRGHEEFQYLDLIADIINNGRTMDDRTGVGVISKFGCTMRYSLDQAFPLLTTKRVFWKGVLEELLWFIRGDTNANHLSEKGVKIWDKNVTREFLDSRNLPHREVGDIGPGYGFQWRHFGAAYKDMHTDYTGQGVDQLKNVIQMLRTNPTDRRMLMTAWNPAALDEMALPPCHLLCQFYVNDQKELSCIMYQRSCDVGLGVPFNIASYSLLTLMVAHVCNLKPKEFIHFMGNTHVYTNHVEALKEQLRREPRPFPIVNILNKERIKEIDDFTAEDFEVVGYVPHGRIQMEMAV", "experiment": "Inhibition of Toxoplasma gondii TS-DHFR expressed in Escherichia coli BL21 preincubated for 15 mins followed by addition of DHF as substrate and NADPH measured after 60 mins by resazurin/diaphorase coupled assay", "assay_type": "cell-free"}, "[2]": {"molecular_target": "T2, Dihydrofolate reductase (Homo sapiens, UniProt P00374)", "T2 sequence (P00374 whole entry)": "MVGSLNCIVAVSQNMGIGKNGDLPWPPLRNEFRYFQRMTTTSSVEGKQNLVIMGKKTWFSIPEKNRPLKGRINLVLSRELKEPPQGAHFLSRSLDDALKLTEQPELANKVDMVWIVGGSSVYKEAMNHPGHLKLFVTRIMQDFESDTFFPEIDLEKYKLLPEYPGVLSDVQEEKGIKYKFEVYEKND", "experiment": "Inhibition of recombinant human DHFR expressed in Escherichia coli preincubated for 15 mins followed by addition of DHF as substrate and NADPH measured after 60 mins by resazurin/diaphorase coupled assay"}, "[3]": {"experiment": "Selectivity ratio of IC50 for human DHFR to IC50 for Toxoplasma gondii DHFR"}}, "note": "pIC50: −log10 of the molar value.", "data": [{"smiles": "Cn1c(-c2cccc(Cl)c2)cc2c(Cl)nc(N)nc21", "values": [{"measurement": "pIC50", "setting": "[1]", "result": "< 5.00"}, {"measurement": "pIC50", "setting": "[2]", "result": "< 5.00"}]}, {"smiles": "Nc1nc(N)c(-c2c[nH]c3ccccc23)c(C2CC2)n1", "values": [{"measurement": "pIC50", "setting": "[1]", "result": 6.04}, {"measurement": "pIC50", "setting": "[2]", "result": 5.60}, {"measurement": "Ratio IC50", "setting": "[3]", "result": 2.9}]}, {"smiles": "Cc1nc(N)nc(N)c1C(=O)N1CCN(c2cccc(-c3cccc(C#N)c3)c2)CC1", "values": [{"measurement": "pIC50", "setting": "[1]", "result": 5.52}, {"measurement": "pIC50", "setting": "[2]", "result": "< 5.00"}, {"measurement": "Ratio IC50", "setting": "[3]", "result": "> 3.3"}]}, {"smiles": "Nc1ncc(CN2CCCN(C(=O)c3cccc(C(F)(F)F)c3)CC2)c(N)n1", "values": [{"measurement": "pIC50", "setting": "[1]", "result": "< 5.00"}, {"measurement": "pIC50", "setting": "[2]", "result": "< 5.00"}]}, {"smiles": "Cn1cc(-c2c(N)nc(N)nc2C2CC2)c2ccccc21", "values": [{"measurement": "pIC50", "setting": "[1]", "result": 6.34}, {"measurement": "pIC50", "setting": "[2]", "result": 5.55}, {"measurement": "Ratio IC50", "setting": "[3]", "result": 6.1}]}, {"smiles": "COc1ccc(-c2c[nH]c3nc(N)nc(OC(C)C)c23)cc1C(F)(F)F", "values": [{"measurement": "pIC50", "setting": "[1]", "result": "< 5.00"}, {"measurement": "pIC50", "setting": "[2]", "result": "< 5.00"}]}, {"smiles": "Nc1ncc(Cn2cc(-c3cccc(Cl)c3)c3cccnc32)c(N)n1", "values": [{"measurement": "pIC50", "setting": "[1]", "result": "< 5.00"}, {"measurement": "pIC50", "setting": "[2]", "result": "< 5.00"}]}, {"smiles": "Nc1ncc(Cn2cc(-c3cccc(C(F)(F)F)c3)c3ccccc32)c(N)n1", "values": [{"measurement": "pIC50", "setting": "[1]", "result": 6.01}, {"measurement": "pIC50", "setting": "[2]", "result": "< 5.00"}, {"measurement": "Ratio IC50", "setting": "[3]", "result": "> 10"}]}, {"smiles": "Cc1nc(N)nc(N)c1C(=O)N1CCN(c2cc(Cl)ccc2-c2ccccn2)CC1", "values": [{"measurement": "pIC50", "setting": "[1]", "result": "< 5.00"}, {"measurement": "pIC50", "setting": "[2]", "result": "< 5.00"}]}, {"smiles": "Nc1ncc(N2CCN(c3ccc(Cl)c(Cl)c3)CC2)c(N)n1", "values": [{"measurement": "pIC50", "setting": "[1]", "result": 7.77}, {"measurement": "pIC50", "setting": "[2]", "result": 7.04}, {"measurement": "Ratio IC50", "setting": "[3]", "result": 10}]}, {"smiles": "Nc1nc(Cl)c2cc(-c3cccc(Cl)c3)[nH]c2n1", "values": [{"measurement": "pIC50", "setting": "[1]", "result": "< 5.00"}, {"measurement": "pIC50", "setting": "[2]", "result": 5.38}, {"measurement": "Ratio IC50", "setting": "[3]", "result": "< 1"}]}, {"smiles": "Nc1nc2[nH]c(-c3cccc(Cl)c3)cc2c(=O)[nH]1", "values": [{"measurement": "pIC50", "setting": "[1]", "result": "< 5.00"}, {"measurement": "pIC50", "setting": "[2]", "result": "< 5.00"}]}, {"smiles": "Nc1ncc(CN2CCN(c3cc(Cl)ccc3OCc3cccc(C(F)(F)F)c3)CC2)c(N)n1", "values": [{"measurement": "pIC50", "setting": "[1]", "result": 6.02}, {"measurement": "pIC50", "setting": "[2]", "result": "< 4.12"}, {"measurement": "Ratio IC50", "setting": "[3]", "result": "> 80"}]}, {"smiles": "Cc1nc(N)nc(N)c1CN1CCN(c2cccc(-c3ccccc3)c2)CC1", "values": [{"measurement": "pIC50", "setting": "[1]", "result": 5.96}, {"measurement": "pIC50", "setting": "[2]", "result": 5.96}, {"measurement": "Ratio IC50", "setting": "[3]", "result": 1}]}, {"smiles": "Nc1ncc(Cn2cc(-c3ccc(F)c(F)c3)c3cnccc32)c(N)n1", "values": [{"measurement": "pIC50", "setting": "[1]", "result": "< 5.00"}, {"measurement": "pIC50", "setting": "[2]", "result": "< 5.00"}]}, {"smiles": "Cc1nc(N)nc(N)c1C(=O)N1CCN(c2cccc(-c3ccccc3)c2)CC1", "values": [{"measurement": "pIC50", "setting": "[1]", "result": 5.62}, {"measurement": "pIC50", "setting": "[2]", "result": "< 5.00"}, {"measurement": "Ratio IC50", "setting": "[3]", "result": "> 4"}]}, {"smiles": "Cc1nc(N)nc(N)c1CN1CCN(c2cccc(-c3cccc(C#N)c3)c2)CC1", "values": [{"measurement": "pIC50", "setting": "[1]", "result": 6.70}, {"measurement": "pIC50", "setting": "[2]", "result": 6.04}, {"measurement": "Ratio IC50", "setting": "[3]", "result": 4.7}]}, {"smiles": "Nc1ncc(Cn2ccc3c(-c4ccc(C(F)(F)F)cc4)cccc32)c(N)n1", "values": [{"measurement": "pIC50", "setting": "[1]", "result": 5.57}, {"measurement": "pIC50", "setting": "[2]", "result": "< 5.00"}, {"measurement": "Ratio IC50", "setting": "[3]", "result": "> 3.5"}]}, {"smiles": "Cc1nc(N)nc(N)c1CN1CCN(c2cc(Cl)ccc2-c2ccccn2)CC1", "values": [{"measurement": "pIC50", "setting": "[1]", "result": 6.43}, {"measurement": "pIC50", "setting": "[2]", "result": 5.68}, {"measurement": "Ratio IC50", "setting": "[3]", "result": 6.5}]}, {"smiles": "Cn1c(-c2cccc(Cl)c2)cc2c(N)nc(N)nc21", "values": [{"measurement": "pIC50", "setting": "[1]", "result": "< 5.00"}, {"measurement": "pIC50", "setting": "[2]", "result": "< 5.00"}]}, {"smiles": "Nc1ncc(CN2CCN(c3cccc(C(F)(F)F)c3)CC2)c(N)n1", "values": [{"measurement": "pIC50", "setting": "[1]", "result": 4.10}, {"measurement": "pIC50", "setting": "[2]", "result": 5.04}, {"measurement": "Ratio IC50", "setting": "[3]", "result": 0.12}]}]}
